Experiments:
[1] = test system: human multiple myeloma RPMI-8226 cells; experiment: ADCC of daratumumab-coated target cells by primed human NK cells (Example 12); assay type: cell-based; conditions: NK cells primed with 300 ng/mL overnight; daratumumab 1 μg/mL; E:T 10:1, 3 hours
Experimental: Human NK cells were magnetically sorted from normal donor PBMCs using negative selection. NK cells were seeded in a 96-well U-bottom plate at a density of 80,000 cells/well (FIG. 15A) OR 400,000 cells/well (FIG. 15B). NK cells were stimulated with 300 ng/mL of a long-acting IL-15 receptor agonist (mono(mPEG-butanamide)IL-15) (+) or left unstimulated (−) in complete RPMI-1640 media supplemented with 10% fetal bovine serum (FBS) and 1% antibiotic/antimycotic overnight at 37° C. in 5% CO2.
The human multiple myeloma RPMI-8226 cells (ATCC #CCL-155) were washed in PBS and stained with 0.15 μM CFSE for 5 min at 37° C. The stimulated NK cells (effector cells) and the daratumumab-coated (+1 μg/mL) CFSE-labeled tumor cells (target cells) were concurrently co-cultured in an E:T ratio of 10:1 for 3 hours at 37° C. in 5% CO2. Following incubation, cells were washed in flow staining buffer, Fc-blocked for 15 min at 4° C., and surface-stained (CD45, CD56, CD3-fluorescently conjugated antibodies). The cells were washed in PBS and incubated in 7-aminoactinomycin (7-AAD) viability stain for 30 minutes at 4° C. before acquiring for flow cytometric analysis using a Fortessa (BD). The percentage of 7-AAD+ CFSE+ target cells from total cell population is the percentage for dead tumor cells.

[2] = test system: CD56+ human NK cells; experiment: Functional activation of human NK cells in PBMCs, CD69 and CD107a MFI by flow cytometry (Example 6); assay type: cell-based; conditions: overnight; Conjugate 1 1 μg/ml; plate coated with hIgG 0.1 mg/ml
Experimental: Functional activation of human NK cells within a human peripheral blood mononuclear cells (PBMCs) preparation was induced in vitro. PBMCs from two donors were incubated overnight in the presence of (i) mono(methoxyPEG-N-butanamide)40 kD interleukin-15 (Conjugate 1) at a concentration of 1 μg/ml; (ii) on cell culture plastic that had been prior coated overnight with human total immunoglobulin G (hIgG) solution at a concentration of 0.1 mg/ml (iii) on cell culture plastic that had been prior coated overnight with human total immunoglobulin G (hIgG) solution at a concentration of 0.1 mg/ml and in the presence of Conjugate 1 at a concentration of 1 μg/ml; or (iv) on regular cell culture plastic.
After the incubation period, NK cell activation was measured with flow cytometry by measuring the increase of median fluorescence intensity (MFI) signal of CD69 (FIG. 9A) and CD107a (FIG. 9B) detecting antibodies on the surface of CD56+ human NK cells within the PBMCs. Functional activation of NK cells was assessed by calculating the fold-change in MFI when comparing control condition where the cells were exposed to neither hIgG nor Conjugate 1. […] Secreted granzyme B concentration also indicative of NK cell activation in the culture media at the end of the experiment was measured by ELISA (FIG. 9C).

[3] = test system: HT-29 colorectal carcinoma cells; experiment: Tumor growth inhibition and delay in HT-29 colorectal carcinoma model (Example 18); assay type: in vivo, mice; conditions: day 21 after treatment initiation; cetuximab 40 mg/kg IP x6; Compound 1 0.3 mg/kg IV x3
Experimental: Tumor growth inhibition was evaluated on day 21 after treatment initiation.
The tumor growth delay (TVQT) was evaluated with the endpoint set as 400% tumor growth from baseline.

[4] = test system: HCT-116 cells; experiment: ADCC of cetuximab-coated HCT-116 cells by primed human NK cells (Example 20); assay type: cell-based; conditions: NK cells primed with 300 ng/mL overnight; cetuximab 30 ug/mL; E:T 10:1, 3 hours
Experimental: Human NK cells were magnetically sorted from normal donor PBMCs using negative selection. NK cells were seeded in a 96-well U-bottom plate at a density of 400,000 cells/well. NK cells were stimulated with mono(methoxyPEG-N-butanamide)40 kD interleukin-15 (Compound 1) (300 ng/mL) (+) or left unstimulated (−) in complete RPMI-1640 media supplemented with 10% fetal bovine serum (FBS) and 1% antibiotic/antimycotic overnight at 37° C. in 5% CO2.
The colonic human HCT-116 cells (ATCC #CCL-247) were cultured McCoy 5A media (ATCC+30-2007) supplemented with 10% fetal bovine serum (FBS) and 1% antibiotic/antimycotic at 37° C. in 5% CO2. HCT-116 cells were subcultured by incubating in 0.25% Trypsin-0.53 mM EDTA for 5 min at 37° C., washed in sterile PBS, resuspended in culture media, counted, and co-cultured with the NK cells using an effector:target (E:T) of 10:1. […] Following incubation, cells were washed in flow staining buffer, Fc-blocked for 15 min at 4° C., and surface-stained (EpCAM, CD45, CD56, CD3-fluorescently conjugated antibodies) for 20 min at 4° C. in the dark. The cells were washed in PBS and incubated in 7-aminoactinomycin (7-AAD) viability stain for 30 minutes at 4° C. before acquiring for flow cytometric analysis using a Fortessa (BD). The percentage of 7-AAD+CD45-EpCAM+ target cells from total cell population is the percentage for dead tumor cells.

[5] = test system: NK cells; experiment: CD16 surface expression on bone marrow NK cells of Daudi lymphoma bearing mice (Example 10); assay type: in vivo; conditions: bone marrow day 24
Experimental: Balb/c mice bearing Daudi B cell lymphoma tumors in the bone marrow (n=6/group) were intraperitoneally administered a single 0.5 mg/kg dose of the human CD38 protein targeting clinical antibody daratumumab (DARZALEX®, Janssen Biotech) or a nonspecific control antibody with a matching isotype on day 14 after Daudi cell intravenous inoculation. Additional groups were treated with (i) mono(mPEG-N-butanamide)40 kD interleukin-15 (Conjugate 1) administered subcutaneously at a dose of 0.3 mg/kg as a single agent on days 14 and 21 after Daudi cell inoculation, or (ii) a combination treatment of Conjugate 1 administered subcutaneously at doses of 0.03 mg/kg or 0.3 mg/kg on days 14 and 21 after Daudi cell inoculation and daratumumab administered intraperitoneally at a dose of 0.5 mg/kg on day 14 after Daudi cell inoculation.
Three days following the second Conjugate 1 administration (day 24 after Daudi inoculation), bone marrow was collected and the NK cell fraction was measured by flow cytometry in total bone marrow. The fraction of NK cells expressing the cell surface CD16 receptor that is known to mediate antibody dependent cellular cytotoxicity mechanism in the presence of tumor targeting antibodies, and the change in CD16 expression per cell basis on NK cells are shown in FIGS. 13A and 13B, respectively.

[6] = Conjugate 1 0.3 mg/kg, antibody 0.5 mg/kg

## mono(methoxyPEG-N-butanamide)40 kD interleukin-15 [Conjugate 1]
[1]
  ADCC, % 7-AAD+ target cells: enhance ADCC
[2]
  CD69 MFI fold-change relative to no stimulation control: 1.8 fold
  CD107a MFI fold-change relative to no stimulation control: 2.6 fold
[3]
  tumor growth inhibition: no tumor growth inhibition
[4]
  ADCC, % 7-AAD+CD45-EpCAM+ target cells: enhance ADCC of cetuximab-coated human solid tumor cells
[5]; Conjugate 1 0.3 mg/kg SC days 14 and 21, antibody 0.5 mg/kg IP day 14
  Fraction of NK cell expressing cell surface CD16 (mean value): 96%
[5]; [6]
  CD16 mean fluorescence intensity (MFI mean value): 853
  Relative CD16 expression compared to untreated condition: 1.8x increase

Source: patent US20210393742A1, “LONG-ACTING INTERLEUKIN-15 RECEPTOR AGONIST IN COMBINATION WITH ANOTHER PHARMACOLOGICALLY ACTIVE AGENT” (Nektar Therapeutics, priority 2018, published 2021)
